Experimental data as given in patent publication US20240217963A1, “RECEPTOR-INTERACTING PROTEIN 1 INHIBITORS, PREPARATIONS, AND USES THEREOF” (SIRONAX LTD., priority 2021, published 2024).

Target: T1, RIP1 (Homo sapiens, UniProt Q13546)
T1 sequence (Q13546 1-671): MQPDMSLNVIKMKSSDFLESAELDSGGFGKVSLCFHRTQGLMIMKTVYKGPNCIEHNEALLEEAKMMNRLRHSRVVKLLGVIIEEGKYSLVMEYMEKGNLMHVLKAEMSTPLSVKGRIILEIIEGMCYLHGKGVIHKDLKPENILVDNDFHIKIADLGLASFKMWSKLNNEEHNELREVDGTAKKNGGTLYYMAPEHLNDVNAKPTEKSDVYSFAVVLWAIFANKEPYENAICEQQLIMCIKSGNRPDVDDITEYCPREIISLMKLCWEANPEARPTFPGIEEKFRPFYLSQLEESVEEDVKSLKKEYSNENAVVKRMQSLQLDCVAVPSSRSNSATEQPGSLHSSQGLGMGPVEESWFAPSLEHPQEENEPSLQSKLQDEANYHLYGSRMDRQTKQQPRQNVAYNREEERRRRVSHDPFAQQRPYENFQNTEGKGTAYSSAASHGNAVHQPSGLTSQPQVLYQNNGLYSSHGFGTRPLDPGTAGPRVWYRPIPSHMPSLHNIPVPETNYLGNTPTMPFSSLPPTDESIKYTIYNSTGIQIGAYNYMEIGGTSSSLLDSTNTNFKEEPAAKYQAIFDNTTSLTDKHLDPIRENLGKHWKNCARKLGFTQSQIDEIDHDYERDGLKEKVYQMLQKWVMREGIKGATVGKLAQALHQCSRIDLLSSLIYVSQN
Assay: Cellular RIP1 inhibitory activity: HT-29 necroptosis (TNFα/SMAC mimetic/zVAD-FMK) CellTiter-Glo viability assay
Type: cell-based
Conditions: HT-29 cells, TNF-α 10 ng/ml + SMAC mimetic 6 μM + zVAD-FMK 10 μM, 20 hours, geometric mean, read-out: EC50 Values of in vitro Cellular RIP1 Inhibitory Activity
Experimental: Compounds 1-99 (denoted as Cmpd Nos. 1 through 99 in Table 2 below) of the disclosure were tested for binding and cellular RIP1 inhibitory activity following the experimental procedures described below. Cell Seeding • 1. HT-29 cells were checked every day to make sure that they were healthy and growing as expected. They were subjected to sub-culturing when they were approximately 80% confluent. • 2. The culture medium, McCOY's 5 A medium (Gibco, Cat No. 16600-082) with 10% fetal bovine serum or FBS (Gibco, Cat No. 10099-141C), was pre-warmed in a 37° C. water bath for at least 30 min. • 3. When the cells had reached a desired level of confluency of 80% in a T75 flask, the medium was aspirated, and the cells were washed with warm phosphate buffered saline or PBS two times. • 4. 2-3 ml fresh warm trypsin (Gibco, Cat No. 25200-056) solution was added to the washed cells. The flask with the cells was transferred to a 37° C. incubator. • 5. After 5 minutes, the side of the flask was tapped, and the flask was examined under a microscope for detachment of the cells to the flask. If necessary, the cells were kept in the incubator for an additional 5-10 minutes, with occasional tapping, until lifting was complete. • 6. The trypsin reaction was neutralized by transferring 6-9 ml cell culture medium to sterile 15 ml conical tubes, and by centrifuging the cell culture at 300×g for 7 minutes to pellet the cells (supernatant decanted). • 7. The cells were resuspended in fresh cell culture medium and the cell counting was performed using a hemocytometer. • 8. 100 μl of the resuspended cell culture medium containing ˜5,000 cells were transferred into each well of the sterile 96-well cell culture plate (Corning 3903) and cultured overnight at 37° C. with 5% CO2. Compound Titration and Treatment • 1. All test compounds were dissolved in DMSO (Dimethyl sulfoxide) to create a 20 mM stock. • 2. 3 μl of each compound 20 mM stock was mixed with 27 μl DMSO, and the compound solution was further diluted at a titration ratio of 1:3 (20 μl compound solution+40 μl DMSO) till the 10 points end. • 3. All culture medium was removed from assay plates filled with HT-29 cell cultures. […] 0.5 μL of the diluted compound solution was added to the corresponding 96-well assay plates. • 5. The assay plates were incubated for 20 hours at 37° C. with 5% CO2. Cell Viability Detection • 1. The CellTiter-Glo® Luminescent Cell Viability Assay was employed to detect the ATP levels of viable HT-29 cells. • 2. The CellTiter-Glo® buffer and the lyophilized substrate were equilibriated to room temperature prior to use. • 3. The CellTiter-Glo® substrate was resuspended with CellTiter-Glo® buffer, then mixed by gently vortexing to obtain a homogeneous solution. • 4. 20 μl the enzyme/substrate mixture was transferred by multi-channel pipetting into 96-well assay plates. • 5. The assay plates were placed on an orbital shaker and the contents were shaken for 3 minutes to induce cell lysis. • 6. The assay plates were incubated at room temperature for 10 minutes to stabilize the luminescent signal. • 7. The luminescence signals were read and recorded with EnVision. • 8. The geometric mean EC50 values were calculated from 10 points response dose with duplicates. In Table 2, activity is provided as follows: +++=0.1 nM≤EC50<100 nM; ++=100 nM≤EC50<1000 nM; +=1000 nM≤EC50<10000 nM.

Structure (SMILES)	EC50 [nM]
Cc1cnn(C)c1-c1nc(N2CCC(C(=O)N(O)Cc3ccncc3F)CC2)ncc1F [Compound 11, 1-(4-(1,4-dimethyl-1H-pyrazol-5-yl)-5-fluoropyrimidin-2-yl)-N-((3-fluoropyridin-4-yl)methyl)-N-hydroxypiperidine-4-carboxamide]	0.1 to 100
Cc1csc(CNC(=O)C2CCN(c3ncc(F)c(-c4c(C)cnn4C)n3)CC2)n1 [Compound 47, 1-(4-(1,4-dimethyl-1H-pyrazol-5-yl)-5-fluoropyrimidin-2-yl)-N-((4-methylthiazol-2-yl)methyl)piperidine-4-carboxamide]	100 to 1000
Cc1nc(C)n(-c2nc(N3CCC(F)(C(=O)N(O)Cc4cc(F)cc(F)c4)CC3)ncc2F)n1 [Compound 14, N-(3,5-difluorobenzyl)-1-(4-(3,5-dimethyl-1H-1,2,4-triazol-1-yl)-5-fluoropyrimidin-2-yl)-4-fluoro-N-hydroxypiperidine-4-carboxamide]	0.1 to 100
Cc1cnn(C)c1-c1nc(N2CCC(C(=O)N(O)C(C)c3ccccc3)CC2)ncc1F (stereo not shown) [Compound 34, 1-(4-(1,4-dimethyl-1H-pyrazol-5-yl)-5-fluoropyrimidin-2-yl)-N-hydroxy-N-(1-phenylethyl)piperidine-4-carboxamide]	0.1 to 100
Cc1ncc(CN(O)C(=O)C2CCN(c3ncc(F)c(-c4c(C)cnn4C)n3)CC2)s1 [Compound 24, 1-(4-(1,4-dimethyl-1H-pyrazol-5-yl)-5-fluoropyrimidin-2-yl)-N-hydroxy-N-((2-methylthiazol-5-yl)methyl)piperidine-4-carboxamide]	0.1 to 100
Cc1cnn(C)c1-c1nc(N2CCC(C(=O)NCc3ccn(C)n3)CC2)ncc1F [Compound 44, 1-(4-(1,4-dimethyl-1H-pyrazol-5-yl)-5-fluoropyrimidin-2-yl)-N-((1-methyl-1H-pyrazol-3-yl)methyl)piperidine-4-carboxamide]	1000 to 10000
Cc1cnn(C)c1-c1nc(N2CCC(C(=O)N(O)Cc3cncn3C)CC2)ncc1F [Compound 40, 1-(4-(1,4-dimethyl-1H-pyrazol-5-yl)-5-fluoropyrimidin-2-yl)-N-hydroxy-N-((1-methyl-1H-imidazol-5-yl)methyl)piperidine-4-carboxamide]	1000 to 10000
Cc1cnn(C)c1-c1nc(N2CCC(C(=O)N(C)Cc3cncs3)CC2)ncc1F [Compound 98, 1-(4-(1,4-dimethyl-1H-pyrazol-5-yl)-5-fluoropyrimidin-2-yl)-N-methyl-N-(thiazol-5-ylmethyl)piperidine-4-carboxamide]	0.1 to 100
Cn1ncnc1-c1nc(N2CCC(C(=O)N(O)Cc3cc(F)cc(F)c3)CC2)ncc1F [Compound 15, N-(3,5-difluorobenzyl)-1-(5-fluoro-4-(1-methyl-1H-1,2,4-triazol-5-yl)pyrimidin-2-yl)-N-hydroxypiperidine-4-carboxamide]	0.1 to 100
Cc1cnn(C)c1-c1nc(N2CCC(C(=O)N[C@H](CO)c3ccccc3)CC2)ncc1F [Compound 36, (S)-1-(4-(1,4-dimethyl-1H-pyrazol-5-yl)-5-fluoropyrimidin-2-yl)-N-(2-hydroxy-1-phenylethyl)piperidine-4-carboxamide]	1000 to 10000
Cc1cnn(C)c1-c1cc(N2CCC(C(=O)NCc3cc(F)cc(F)c3)CC2)ncn1 [Compound 42, N-(3,5-difluorobenzyl)-1-(6-(1,4-dimethyl-1H-pyrazol-5-yl)pyrimidin-4-yl)piperidine-4-carboxamide]	100 to 1000
Cc1cnn(C)c1-c1nc(N2CCC(C(=O)NCc3cc(C)n(C)n3)CC2)ncc1F [Compound 43, N-((1,5-dimethyl-1H-pyrazol-3-yl)methyl)-1-(4-(1,4-dimethyl-1H-pyrazol-5-yl)-5-fluoropyrimidin-2-yl)piperidine-4-carboxamide]	1000 to 10000
[2H]C([2H])(NC(=O)C1CCN(c2ncc(F)c(-c3c(C)cnn3C)n2)CC1)c1cc(F)cc(F)c1F [Compound 60, 1-(4-(1,4-dimethyl-1H-pyrazol-5-yl)-5-fluoropyrimidin-2-yl)-N-((2,3,5-trifluorophenyl)methyl-d2)piperidine-4-carboxamide]	0.1 to 100
